Earlier results on two molecules are cited in patent publication US20050009919A1, “Treating cachexia and excessive catabolism with (-)-hydroxycitric acid” (priority 2003, published 2005).

With `O=C(O)CC(O)(C(=O)O)C(O)C(=O)O` (single isomer, unassigned; (-)) [HCA, (−)-Hydroxycitric acid], where the note is “Heymsfield 1998, Mattes 2000”, the “Appetite suppression in clinical trials” value is reported as “failed to produce appetite suppression” and the “Weight change in clinical trials” value is recorded as “not-statistically-significant trends toward weight elevation”.
With “calcium (−)-hydroxycitrate [reference compound]”, the “Anorectic results in clinical trials” value (1.2 grams to 3 grams of HCA per day, divided doses before meals) is “failed to produce anorectic results”.
